Measurements reported in paper PMC3527734, “Peripheral injections of melanin-concentrating hormone receptor 1 antagonist S38151 decrease food intake and body weight in rodent obesity models” (Frontiers in Endocrinology, 2012).
Where a SMILES comes first, the peptide text is derived from it.

Experiments:
Zucker fa/fa rats = assay: conditioned taste aversion; format: in vivo, rat; details: test days 4, 7, 11, 14 versus control; lithium chloride 75 mg/kg i.p.; S38151 20 nmol/kg i.c.v.; n = 10-11
MCH1-KO mice = assay: daily i.p. S38151 in MCH1-KO mice; format: in vivo, mouse
Description: In these studies, 13-week-old female C57BL/6J, ob/ob, and MCH1-KO mice were used. The mice were maintained on a 12-h light/dark cycle (lights on at 07:30 and off at 19:30) at 22 ± 3°C, and supplied with food pellets (6 mm diameter A03, UAR Laboratory chow, Epinay Villemuisson France) and tap water ad libitum. To induce obesity in C57BL/6J (creating diet-induced obese, or DIO, mice), mice were fed a high-fat diet (60 kcal% fat, 20 kcal% protein, 20 kcal% carbohydrate, ref D12492 from Research Diets, New Brunswick, NJ08901, USA) for 8 weeks starting at 4 weeks of age. In these experiments, DIO mice, ob/ob mice, and MCH^−/−1 mice were individually housed in a modular chamber that was placed on an activity platform to concurrently measure the food intake, water intake, and activity of the mice (ADDENFI, Les Cordeliers, Paris, France). For at least 2 weeks before experimentation, mice were habituated to a diet of 6 mm diameter food pellets of the following composition: 67.5% food flour, 26.5% sucrose, 5% gum tragacanth, 1.25% magnesium stearate (A03 UAR, Orge, France), and to i.p. injection. After this habituation period, food intake, drink intake, and body weight were measured for 3 consecutive days. The mice were randomized into three groups based on their food and water intake over the three preceding 24-h periods, and on their body weight. Next, the quantity of food eaten over each 24-h period during the 5 days of i.p. treatment with S38151 [10 and 30 mg/kg/day (7 and 20 μmol/kg/day)] or vehicle was determined and corrected for spillage.
Figure 10 The effects of repeated daily S38151 injection on food and water intake, body weight, and motility in MCHR1-KO mice. MCH1-KO mice were administered S38151 (10 and 30 mg/kg, i.p.) or vehicle (normal saline i.p.) for 5 consecutive days. Results are expressed as mean ± SEM (n = 8 mice per group).

[1] = S38151 10 and 30 mg/kg i.p. daily for 5 days, n = 8

With `CSCC[C@@H]1NC(=O)[C@@H](NC(=O)c2ccc(NC(=N)N)cc2)CSSC[C@@H](C(=O)N[C@@H](Cc2c[nH]c3ccccc23)C(=O)O)NC(=O)[C@@H]2CCCN2C(=O)[C@H](CCCNC(=N)N)NC(=O)[C@H](Cc2ccc(O)cc2)NC(=O)[C@H](C(C)C)NC(=O)[C@H](CCCNC(=N)N)NC(=O)[C@H](CC(C)C)NC1=O` [S38151, p-guanidinobenzoyl-(Des-Gly10)-MCH (7–17)] (HELM PEPTIDE1{[N=C(N)Nc1ccc(C(=O)[*:2])cc1].C.M.L.R.V.Y.R.P.C.W}$PEPTIDE1,PEPTIDE1,2:R3-10:R3$$$V2.0; C-terminus assumed) the 0.2% saccharine consumption (Zucker fa/fa rats) was “did not affect”, the motility (MCH1-KO mice; S38151 30 mg/kg (20 μmol/kg/day) i.p. daily for 5 days) was “significant reduction” and the body weight (MCH1-KO mice; [1]) was “did not induce any significant effects”. For the same compound, the drink intake (MCH1-KO mice; [1]) was “did not induce any significant effects” and the food intake (MCH1-KO mice; [1]) was “did not induce any significant effects”.
